From patent US20120004272A1, “BIOCIDAL COMPOSITION OF 2,6-DIMETHYL-M-DIOXANE-4-OL ACETATE AND METHODS OF USE” (priority 2009, published 2012)

How the values were obtained:
[1] = tested on: Pseudomonas aeruginosa (ATCC#15442, ATCC#10145), Enterobacter aerogenes, Escherichia coli, Klebsiella pneumoniae, Staphylococcus aureus, Salmonella …; test: Preservative efficacy (multi-challenge, 96-deep well) in spinning finish emulsion; format: cell-based; conditions: Day 27, post 4th microbial challenge; ppm active
[2] = tested on: Pseudomonas aeruginosa (ATCC#15442, ATCC#10145), Enterobacter aerogenes, Escherichia coli, Klebsiella pneumoniae, Staphylococcus aureus, Salmonella …; test: Preservative efficacy (multi-challenge, 96-deep well) in water-based latex paint, pH 7.4; format: cell-based
[3] = Day 15, after four bacterial challenges, ppm active
[4] = Day 20, after four bacterial challenges, ppm active

O=[N+]([O-])C(CO)(CO)CO [TN, 2-Hydroxymethyl-2-nitro-1,3-propanediol]
TN alone (ppm), concentration necessary for ≧6 log10 microbial kill [1]: 592 ppm

ClC=CC[N+]12CN3CN(CN(C3)C1)C2.[Cl-] [CTAC]
CTAC alone (ppm), concentration necessary for ≧6 log10 microbial kill [1]: 582 ppm

CC1(C)COCN1 [DMO, 4,4-Dimethyloxazolidine]
DMO alone (ppm), concentration required for ≧4 log10 microbial kill [2, 3]: 308 ppm | log10 viable microorganisms, DMO alone score ([2]; Day 15, DMO 91 ppm): 8 log10 | log10 viable microorganisms, DMO alone score ([2]; Day 15, DMO 137 ppm): 7 log10 | log10 viable microorganisms, DMO alone score ([2]; Day 15, DMO 205 ppm): 6 log10 | log10 viable microorganisms, DMO alone score ([2]; Day 15, DMO 308 ppm): 0 log10 | log10 viable microorganisms, DMO alone score ([2]; Day 15, DMO 463 ppm): 0 log10 | log10 viable microorganisms, DMO alone score ([2]; Day 15, DMO 693 ppm): 0 log10 | log10 viable microorganisms, DMO alone score ([2]; Day 15, DMO 1040 ppm): 0 log10 | log10 viable microorganisms, DMO alone score ([2]; Day 15, DMO 1560 ppm): 0 log10 | DMO alone (ppm), concentration necessary for ≧6 log10 microbial kill [1]: 355 ppm

CC(=O)OC1CC(C)OC(C)O1 (stereo not shown) [DMX, 2,6-Dimethyl-m-dioxan-4-ol acetate]
DMX alone (ppm), concentration required for ≧4 log10 microbial kill [2, 3]: 1740 ppm | log10 viable microorganisms, DMX alone ([2]; Day 15, DMX 102 ppm): 7 log10 | log10 viable microorganisms, DMX alone ([2]; Day 15, DMX 153 ppm): 7 log10 | log10 viable microorganisms, DMX alone ([2]; Day 15, DMX 229 ppm): 8 log10 | log10 viable microorganisms, DMX alone ([2]; Day 15, DMX 344 ppm): 8 log10 | log10 viable microorganisms, DMX alone ([2]; Day 15, DMX 516 ppm): 7 log10 | log10 viable microorganisms, DMX alone ([2]; Day 15, DMX 773 ppm): 8 log10 | log10 viable microorganisms, DMX alone ([2]; Day 15, DMX 1160 ppm): 5 log10 | log10 viable microorganisms, DMX alone ([2]; Day 15, DMX 1740 ppm): 0 log10 | DMX alone (ppm), concentration required for ≧4 log10 microbial kill [2, 4]: 1740 ppm | log10 viable microorganisms, DMX alone ([2]; Day 20, DMX 102 ppm): 8 log10 | log10 viable microorganisms, DMX alone ([2]; Day 20, DMX 153 ppm): 8 log10 | log10 viable microorganisms, DMX alone ([2]; Day 20, DMX 229 ppm): 8 log10 | log10 viable microorganisms, DMX alone ([2]; Day 20, DMX 344 ppm): 8 log10 | log10 viable microorganisms, DMX alone ([2]; Day 20, DMX 516 ppm): 8 log10 | log10 viable microorganisms, DMX alone ([2]; Day 20, DMX 773 ppm): 8 log10 | log10 viable microorganisms, DMX alone ([2]; Day 20, DMX 1160 ppm): 8 log10 | log10 viable microorganisms, DMX alone ([2]; Day 20, DMX 1740 ppm): 4 log10 | DMX alone (ppm), concentration necessary for ≧6 log10 microbial kill [1]: 1339 ppm

CCC12COCN1COC2 [EBCO, 7-Ethyl-bicyclooxazolidine]
EBCO alone (ppm), concentration required for ≧4 log10 microbial kill [2, 4]: 1920 ppm | log10 viable microorganisms, EBCO alone score ([2]; Day 20, EBCO 112 ppm): 8 log10 | log10 viable microorganisms, EBCO alone score ([2]; Day 20, EBCO 169 ppm): 8 log10 | log10 viable microorganisms, EBCO alone score ([2]; Day 20, EBCO 252 ppm): 8 log10 | log10 viable microorganisms, EBCO alone score ([2]; Day 20, EBCO 379 ppm): 7 log10 | log10 viable microorganisms, EBCO alone score ([2]; Day 20, EBCO 569 ppm): 7 log10 | log10 viable microorganisms, EBCO alone score ([2]; Day 20, EBCO 853 ppm): 8 log10 | log10 viable microorganisms, EBCO alone score ([2]; Day 20, EBCO 1280 ppm): 7 log10 | log10 viable microorganisms, EBCO alone score ([2]; Day 20, EBCO 1920 ppm): 0 log10
